Values of other authors in patent publication US5374661A (Sano Corporation, priority 1993, dated 1994).

Assays:
[1] = tested on: cyclooxygenase
[2] = tested on: lipoxygenase pathway
[3] = oral

O=C(O)Cc1ccccc1Nc1c(Cl)cccc1Cl [Diclofenac]
inhibition of cyclooxygenase pathway (in words) [1]: inhibits the cyclooxygenase pathway with subsequent reduction in prostaglandin and thromboxane production | inhibition of lipoxygenase pathway (in words) [2]: may inhibit the lipoxygenase pathway with subsequent reduction in leukotriene production | less frequent side effects [3]: abdominal distension, flatulence and peptic ulcers with bleeding | most common gastrointestinal side effects [3]: nausea, vomiting, abdominal pain, dyspepsia and diarrhea
